# From patent US20100267561A1, “HERBICIDAL PYRIDAZINONE DERIVATIVES” (priority 2007, published 2010)
# Experiments:
# Type in all cases: in vivo
# [1] = test system: morningglory (Ipomoea coccinea); test: Test B pre-/postemergence plant response
# Procedure, shortened: (§1)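 Preemergence and postemergence (plants 2-18 cm, 1- to 4-leaf stage) applications used test chemicals in a non-phytotoxic solvent with surfactant. Plants were held in a greenhouse 13 to 15 days, then rated visually against controls on a 0-100 scale (0 no effect, 100 complete control).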
# [2] = test system: common (oilseed) sunflower (Helianthus annuus); test: Test B pre-/postemergence plant response; conditions: Preemergence
# Procedure, shortened: as §1
# [3] = test system: wheat (Triticum aestivum); test: Test B pre-/postemergence plant response
# Procedure, shortened: as §1
# [4] = test system: large crabgrass (Digitaria sanguinalis); test: Test B pre-/postemergence plant response
# Procedure, shortened: as §1
# [5] = test system: wild oat (Avena fatua); test: Test B pre-/postemergence plant response
# Procedure, shortened: as §1
# [6] = test system: green foxtail (Setaria viridis); test: Test B pre-/postemergence plant response
# Procedure, shortened: as §1
# [7] = test system: velvetleaf (Abutilon theophrasti); test: Test B pre-/postemergence plant response
# Procedure, shortened: as §1
# [8] = test system: corn (Zea mays); test: Test B pre-/postemergence plant response
# Procedure, shortened: as §1
# [9] = test system: downy bromegrass (Bromus tectorum); test: Test B pre-/postemergence plant response
# Procedure, shortened: as §1
# [10] = test system: surinam grass (Brachiaria decumbens); test: Test B pre-/postemergence plant response
# Procedure, shortened: as §1
# [11] = test system: barnyardgrass (Echinochloa crus-galli); test: Test B flooded paddy test plant response
# Procedure, shortened: (§2)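 Rice, umbrella sedge, ducksalad and barnyardgrass at 2-leaf stage; pots flooded to 3 cm, compounds applied into paddy water, depth held throughout. Greenhouse 13 to 15 days, then visual rating vs untreated controls on 0–100 scale (0 no effect, 100 complete control); dash means no test result.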
# [12] = test system: rice (Oryza sativa); test: Test B flooded paddy test plant response
# Procedure, shortened: as §2
# [13] = test system: umbrella sedge (Cyperus difformis); test: Test B flooded paddy test plant response
# Procedure, shortened: as §2
# [14] = test system: ducksalad (Heteranthera limosa); test: Test B flooded paddy test plant response
# Procedure, shortened: as §2
# [15] = 8 g ai/ha, postemergence, 0-100 scale
# [16] = 16 g ai/ha, postemergence, 0-100 scale
# [17] = Postemergence, 31 g ai/ha, scale 0 to 100
# [18] = Postemergence, 62 g ai/ha, scale 0 to 100, 0 no effect, 100 complete control
# [19] = Preemergence, 8 g ai/ha, scale 0 to 100 (0 no effect, 100 complete control)
# [20] = Preemergence, 31 g ai/ha, scale 0 to 100 (0 no effect, 100 complete control)
# [21] = Preemergence, 62 g ai/ha, 0 to 100 scale, 0 no effect, 100 complete control
# [22] = Preemergence, 16 g ai/ha, scale 0 to 100
# [23] = Postemergence, 16 g ai/ha, scale 0 to 100
# [24] = Flood (flooded paddy test), 62 g ai/ha, scale 0 to 100, 0 no effect, 100 complete control
# [25] = Flood (flooded paddy test), 125 g ai/ha, scale 0 to 100, 0 no effect, 100 complete control
# [26] = Flood (flooded paddy test), 250 g ai/ha, scale 0 to 100, 0 no effect, 100 complete control
# [27] = Flood, 31 g ai/ha, scale 0 to 100
smiles,measurement,setting,value
Cc1nn(C)c(=O)c(-n2nc(-c3ccc(Br)cc3)cc2C)c1O [Compound 81],Morningglory plant response rating,[1]; [15],0
same,Morningglory plant response rating,[1]; [16],0
same,"Plant response rating, Morningglory",[1]; [17],0
same,"Plant response rating, Morningglory",[1]; [18],0
same,Morningglory plant response rating,[1]; [19],0
same,"Plant response rating, Morningglory",[1]; [20],0
same,"Plant response rating, Morningglory",[1]; [21],100
same,Morningglory plant response rating,[1]; [22],0
same,Sunflower plant response rating,"[2]; 8 g ai/ha, scale 0 to 100 (0 no effect, 100 complete control)",0
same,"Plant response rating, Sunflower","[2]; 31 g ai/ha, scale 0 to 100 (0 no effect, 100 complete control)",15
same,"Plant response rating, Sunflower","[2]; 62 g ai/ha, 0 to 100 scale, 0 no effect, 100 complete control",20
same,Sunflower plant response rating,"[2]; 16 g ai/ha, scale 0 to 100",0
same,Wheat plant response rating,[3]; [15],30
same,Wheat plant response rating,[3]; [16],55
same,"Plant response rating, Wheat",[3]; [17],95
same,"Plant response rating, Wheat",[3]; [18],100
same,Wheat plant response rating,[3]; [19],0
same,"Plant response rating, Wheat",[3]; [20],50
same,"Plant response rating, Wheat",[3]; [21],85
same,Wheat plant response rating,[3]; [22],5
same,"Crabgrass, Large plant response rating",[4]; [15],50
same,"Plant response rating, Crabgrass, Large",[4]; [23],98
same,"Plant response rating, Crabgrass, Large",[4]; [17],100
same,"Plant response rating, Crabgrass, Large",[4]; [18],100
same,"Crabgrass, Large plant response rating",[4]; [19],65
same,"Plant response rating, Crabgrass, Large",[4]; [20],100
same,"Plant response rating, Crabgrass, Large",[4]; [21],100
same,"Crabgrass, Large plant response rating",[4]; [22],98
same,"Oat, Wild plant response rating",[5]; [15],80
same,"Oat, Wild plant response rating",[5]; [16],95
same,"Plant response rating, Oat, Wild",[5]; [17],100
same,"Plant response rating, Oat, Wild",[5]; [18],100
same,"Oat, Wild plant response rating",[5]; [19],45
same,"Plant response rating, Oat, Wild",[5]; [20],70
same,"Plant response rating, Oat, Wild",[5]; [21],85
same,"Oat, Wild plant response rating",[5]; [22],60
same,"Foxtail, Green plant response rating",[6]; [15],85
same,"Plant response rating, Foxtail, Green",[6]; [23],90
same,"Plant response rating, Foxtail, Green",[6]; [17],95
same,"Plant response rating, Foxtail, Green",[6]; [18],98
same,"Foxtail, Green plant response rating",[6]; [19],40
same,"Plant response rating, Foxtail, Green",[6]; [20],100
same,"Plant response rating, Foxtail, Green",[6]; [21],100
same,"Foxtail, Green plant response rating",[6]; [22],80
same,Velvetleaf plant response rating,[7]; [15],0
same,Velvetleaf plant response rating,[7]; [16],0
same,"Plant response rating, Velvetleaf",[7]; [17],0
same,"Plant response rating, Velvetleaf",[7]; [18],0
same,Velvetleaf plant response rating,[7]; [19],0
same,"Plant response rating, Velvetleaf",[7]; [20],0
same,"Plant response rating, Velvetleaf",[7]; [21],0
same,Velvetleaf plant response rating,[7]; [22],0
same,Corn plant response rating,[8]; [15],45
same,"Plant response rating, Corn",[8]; [23],100
same,"Plant response rating, Corn",[8]; [17],100
same,"Plant response rating, Corn",[8]; [18],100
same,Corn plant response rating,[8]; [19],65
same,"Plant response rating, Corn",[8]; [20],98
same,"Plant response rating, Corn",[8]; [21],100
same,Corn plant response rating,[8]; [22],70
same,"Bromegrass, Downy plant response rating",[9]; [15],0
same,"Plant response rating, Bromegrass, Downy",[9]; [23],45
same,"Plant response rating, Bromegrass, Downy",[9]; [17],50
same,"Plant response rating, Bromegrass, Downy",[9]; [18],70
same,"Bromegrass, Downy plant response rating",[9]; [19],20
same,"Plant response rating, Bromegrass, Downy",[9]; [20],70
same,"Plant response rating, Bromegrass, Downy",[9]; [21],85
same,"Bromegrass, Downy plant response rating",[9]; [22],70
same,Surinam Grass plant response rating,[10]; [15],90
same,Surinam Grass plant response rating,[10]; [16],98
same,"Plant response rating, Surinam Grass",[10]; [17],100
same,"Plant response rating, Surinam Grass",[10]; [18],100
same,Surinam Grass plant response rating,[10]; [19],60
same,"Plant response rating, Surinam Grass",[10]; [20],100
same,"Plant response rating, Surinam Grass",[10]; [21],100
same,Surinam Grass plant response rating,[10]; [22],85
same,"Plant response rating, Barnyardgrass",[11]; [24],0
same,"Plant response rating, Barnyardgrass",[11]; [25],0
same,"Plant response rating, Barnyardgrass",[11]; [26],0
same,"Plant response rating, Barnyardgrass",[11]; [27],0
same,"Plant response rating, Rice",[12]; [24],0
same,"Plant response rating, Rice",[12]; [25],0
same,"Plant response rating, Rice",[12]; [26],0
same,"Plant response rating, Rice",[12]; [27],0
same,"Plant response rating, Sedge, Umbrella",[13]; [24],0
same,"Plant response rating, Sedge, Umbrella",[13]; [25],0
same,"Plant response rating, Sedge, Umbrella",[13]; [26],0
same,"Plant response rating, Sedge, Umbrella",[13]; [27],0
same,"Plant response rating, Ducksalad",[14]; [24],0
same,"Plant response rating, Ducksalad",[14]; [25],0
same,"Plant response rating, Ducksalad",[14]; [26],0
same,"Plant response rating, Ducksalad",[14]; [27],0
